Experimental data from publication PMC6572064, “Discovery of 2-(1-(3-(4-Chloroxyphenyl)-3-oxo- propyl)pyrrolidine-3-yl)-1H-benzo[d]imidazole-4-carboxamide: A Potent Poly(ADP-ribose) Polymerase (PARP) Inhibitor for Treatment of Cancer” (Molecules, 2019).
Like-named read-outs stand apart in the source and are kept apart here.

Tests used:
[1] = test system: MDA-MB-436 (a BRCA-1-mutated breast cancer cell line); experiment: Cell proliferation assay, three-day, CellTiter-Glo, MDA-MB-436; assay type: cell-based; conditions: for inhibition at 0.00508 µM / inhibition at 0.0152 µM / inhibition at 0.0457 µM / inhibition at 0.41 µM / inhibition at 1.23 µM / inhibition at 3.7 µM / inhibition at 11.11 µM / inhibition at 33.33 µM / inhibition at 100 µM / IC50: Homo sapiens; for inhibition at 0.00508 µM: MDA-MB-436, MDA-MB-436, Conc. 0.00508 uM; for inhibition at 0.0152 µM: MDA-MB-436, MDA-MB-436, Conc. 0.0152 uM; for inhibition at 0.0457 µM: MDA-MB-436, MDA-MB-436, Conc. 0.0457 uM; for inhibition at 0.41 µM: MDA-MB-436, MDA-MB-436, Conc. 0.41 uM; for inhibition at 1.23 µM: MDA-MB-436, MDA-MB-436, Conc. 1.23 uM; for inhibition at 3.7 µM: MDA-MB-436, MDA-MB-436, Conc. 3.70 uM; for inhibition at 11.11 µM: MDA-MB-436, MDA-MB-436, Conc. 11.11 uM; for inhibition at 33.33 µM: MDA-MB-436, MDA-MB-436, Conc. 33.33 uM; for inhibition at 100 µM: MDA-MB-436, MDA-MB-436, Conc. 100.00 uM
Method: (§1) A three-day assay was conducted. A cell suspension was prepared. Cell density was counted by an automated cell counter and then diluted to the required density, according to seeding density. 50 μL cells were seeded into 384-well plate in growth medium according to the plate map. The cells were incubated at 37 °C, 5% CO2 overnight.
(§2) 200× compound solution in DMSO was prepared and diluted with growth medium to 26× final concentration by addition of 26 μL 200× compounds to 174 μL growth medium. Then 2 μL of diluted compound solution was added to cells and the cell was incubated at 37 °C, 5% CO2 for 72 h.
(§3) The assay plate was equilibrated to room temperature prior to measurement. 15 μL of CellTiter-Glo Reagent was added into each well and the contents were mixed for 2 min on an orbital shaker to induce cell lysis. The cells were incubated at room temperature for 60 min to stabilize luminescent signal. Luminescence was recorded on the Envision system.

[2] = test system: CAPAN-1 (a BRCA-2-mutated pancreatic cancer cell line); experiment: Cell proliferation assay, three-day, CellTiter-Glo, CAPAN-1; assay type: cell-based; conditions: for inhibition at 0.00508 µM: CAPAN-1, Conc. 0.00508 uM; for inhibition at 0.0152 µM: CAPAN-1, Conc. 0.0152 uM; for inhibition at 0.0457 µM: CAPAN-1, Conc. 0.0457 uM; for inhibition at […]: CAPAN-1, Conc. 0.14 uM; for inhibition at 0.41 µM: CAPAN-1, Conc. 0.41 uM; for inhibition at 1.23 µM: CAPAN-1, Conc. 1.23 uM; for inhibition at 3.7 µM: CAPAN-1, Conc. 3.70 uM; for inhibition at 11.11 µM: CAPAN-1, Conc. 11.11 uM; for inhibition at 33.33 µM: CAPAN-1, Conc. 33.33 uM; for inhibition at 100 µM: CAPAN-1, Conc. 100.00 uM
Method: as §1, §2, §3

[3] = Homo sapiens, replicate 1, read-out: Inh % 1
[4] = Homo sapiens, replicate 2, read-out: Inh % 2

IC50 ([1]; MDA-MB-436, 72 h, CellTiter-Glo, read-out: MDA-MB-436 IC50): 30.2 µM | IC50 ([1]; MDA-MB-436, 72 h, supplement Summary sheet, read-out: IC50): 30.2 µM | IC50 ([1]; MDA-MB-436, curve-fit parameter list, concentrations in uM, read-out: IC50): 30.2 µM | CAPAN-1 IC50 (μM) ([2]; 72 h, CellTiter-Glo): low potency | IC50 ([2]; Homo sapiens, CAPAN-1, 72 h, CellTiter-Glo, read-out: CAPAN-1 IC50): > 100 µM
SMILES: O=C(c1cc(Cc2n[nH]c(=O)c3ccccc23)ccc1F)N1CCN(C(=O)C2CC2)CC1 [pc2, Olaparib, reference compound]
inhibition at 0.00508 µM ([1]; replicate 1, read-out: Inh % 1): 4.1% | inhibition at 0.00508 µM ([1]; replicate 2, read-out: Inh % 2): -2.3% | inhibition at 0.0152 µM ([1]; replicate 1, read-out: Inh % 1): 1.7% | inhibition at 0.0152 µM ([1]; replicate 2, read-out: Inh % 2): -1.2% | inhibition at 0.0457 µM ([1]; replicate 1, read-out: Inh % 1): -5.7% | inhibition at 0.0457 µM ([1]; replicate 2, read-out: Inh % 2): -2.8% | inhibition at 0.41 µM ([1]; replicate 1, read-out: Inh % 1): 0.181% | inhibition at 0.41 µM ([1]; replicate 2, read-out: Inh % 2): 5.7% | inhibition at 1.23 µM ([1]; replicate 1, read-out: Inh % 1): 4% | inhibition at 1.23 µM ([1]; replicate 2, read-out: Inh % 2): 2% | inhibition at 3.7 µM ([1]; replicate 1, read-out: Inh % 1): 12.4% | inhibition at 3.7 µM ([1]; replicate 2, read-out: Inh % 2): 13.5% | inhibition at 11.11 µM ([1]; replicate 1, read-out: Inh % 1): 23.3% | inhibition at 11.11 µM ([1]; replicate 2, read-out: Inh % 2): 24.2% | inhibition at 33.33 µM ([1]; replicate 1, read-out: Inh % 1): 50.1% | inhibition at 33.33 µM ([1]; replicate 2, read-out: Inh % 2): 43.1% | inhibition at 100 µM ([1]; replicate 1, read-out: Inh % 1): 92.4% | inhibition at 100 µM ([1]; replicate 2, read-out: Inh % 2): 90.9% | LogIC50 ([1]; MDA-MB-436, curve-fit parameter list, Log (uM)): 1.481 | LogIC50 ([2]; CAPAN-1, curve-fit output, concentration axis Log (uM)): 2.033 | inhibition at 0.00508 µM [2, 3]: 1.8% | inhibition at 0.00508 µM [2, 4]: -2% | inhibition at 0.0152 µM [2, 3]: 5.2% | inhibition at 0.0152 µM [2, 4]: -2.3% | inhibition at 0.0457 µM [2, 3]: -6.9% | inhibition at 0.0457 µM [2, 4]: 0.662% | inhibition at […] [2, 3]: 0.107% | inhibition at […] [2, 4]: 6.2% | inhibition at 0.41 µM [2, 3]: 4.3% | inhibition at 0.41 µM [2, 4]: 7.9% | inhibition at 1.23 µM [2, 3]: 15.1% | inhibition at 1.23 µM [2, 4]: 0.6% | inhibition at 3.7 µM [2, 3]: 21.3% | inhibition at 3.7 µM [2, 4]: 11.6% | inhibition at 11.11 µM [2, 3]: 18.6% | inhibition at 11.11 µM [2, 4]: 23.5% | inhibition at 33.33 µM [2, 3]: 38.5% | inhibition at 33.33 µM [2, 4]: 34.2% | inhibition at 100 µM [2, 3]: 48.2% | inhibition at 100 µM [2, 4]: 47.5%
